US8895733B2 (Novartis AG, priority 2010, dated 2014)
Like-named read-outs stand apart in the source and are kept apart here.

Molecular target: T1, Nav 1.7 (Homo sapiens, UniProt Q15858)
T1 construct: expressed in transfected cells
Experiment: Whole-cell voltage clamp electrophysiology, automated patch clamp (marker c in Table of Examples)
Type: cell-based
Conditions: read-out: Nav 1.7 activity
Text: a.IonWork Quattro data, b=Manual patch clamp data, c=Automated patch clamp data M=Method
Whole-Cell Voltage Clamp Electrophysiology Assay
Patch-clamp electrophysiology is considered the gold standard technique for investigation of ion channel function and pharmacology. Using this method, sodium channel currents can be measured in cells, which stably (or transiently) express the sodium channel subtype of interest. Application of compounds during such experiments provides a functional measure of the activity and potency of compounds affecting the ion channel of interest.
Electrophysiological studies can be performed using automated or manual patch-clamp techniques. Automated patch-clamp instruments suitable for this work include the Ion Works HT (MDS), Ion Works Quattro (MDS), PatchLiner (Nanion technologies), Port-A-Patch (Nanion technologies), QPatch (Sophion) or any other suitable platform.
For recording in automated patch-clamp instruments, cells expressing the voltage-gated sodium channel subtype of interest are dispensed in appropriate chips (plates with more than one recording chambers each containing one or more apertures to generate whole-cell patches), as provided by the manufacturer. Typically, the whole-cell perforated patch configuration is used for probing the pharmacology of compounds in automated patch-clamp electrophysiology on sodium channels. Extracellular and intracellular buffers for such experiments are composed according to the literature, or according to the instructions provided by the manufacturer of the instruments. Test solutions, which contain the compounds to be tested, are applied to the cells expressing the sodium channel of interest by a pipetting system, typically integrated into the robots.
A suitable voltage stimulus protocol is used to activate voltage-gated sodium channel proteins of interest. A typical stimulus protocol may consist of sweeps of sequential voltage pulses starting from a holding potential (i.e. −65 mV), to a more positive and depolarising test pulse potential (i.e. −10 mV) and finally to a more negative and hyperpolarising potential (i.e. −100 mV). According to the biophysics of the voltage-gated ion channel of interest and interest in channel configuration the voltages and durations of the pulses as well as the overall frequency of sweeps applied might vary. Accordingly, a stimulus protocol was designed to assess compounds due to their potential to block NaV1.7 channels primarily in inactivated state. Selectivity over other voltage-gated sodium channel members was assessed by protocols that reflect the native function of the channels (i.e. heart rate or firing of neurons).

[1] = marker c: Automated patch clamp data

T1 sequence (Q15858 whole entry): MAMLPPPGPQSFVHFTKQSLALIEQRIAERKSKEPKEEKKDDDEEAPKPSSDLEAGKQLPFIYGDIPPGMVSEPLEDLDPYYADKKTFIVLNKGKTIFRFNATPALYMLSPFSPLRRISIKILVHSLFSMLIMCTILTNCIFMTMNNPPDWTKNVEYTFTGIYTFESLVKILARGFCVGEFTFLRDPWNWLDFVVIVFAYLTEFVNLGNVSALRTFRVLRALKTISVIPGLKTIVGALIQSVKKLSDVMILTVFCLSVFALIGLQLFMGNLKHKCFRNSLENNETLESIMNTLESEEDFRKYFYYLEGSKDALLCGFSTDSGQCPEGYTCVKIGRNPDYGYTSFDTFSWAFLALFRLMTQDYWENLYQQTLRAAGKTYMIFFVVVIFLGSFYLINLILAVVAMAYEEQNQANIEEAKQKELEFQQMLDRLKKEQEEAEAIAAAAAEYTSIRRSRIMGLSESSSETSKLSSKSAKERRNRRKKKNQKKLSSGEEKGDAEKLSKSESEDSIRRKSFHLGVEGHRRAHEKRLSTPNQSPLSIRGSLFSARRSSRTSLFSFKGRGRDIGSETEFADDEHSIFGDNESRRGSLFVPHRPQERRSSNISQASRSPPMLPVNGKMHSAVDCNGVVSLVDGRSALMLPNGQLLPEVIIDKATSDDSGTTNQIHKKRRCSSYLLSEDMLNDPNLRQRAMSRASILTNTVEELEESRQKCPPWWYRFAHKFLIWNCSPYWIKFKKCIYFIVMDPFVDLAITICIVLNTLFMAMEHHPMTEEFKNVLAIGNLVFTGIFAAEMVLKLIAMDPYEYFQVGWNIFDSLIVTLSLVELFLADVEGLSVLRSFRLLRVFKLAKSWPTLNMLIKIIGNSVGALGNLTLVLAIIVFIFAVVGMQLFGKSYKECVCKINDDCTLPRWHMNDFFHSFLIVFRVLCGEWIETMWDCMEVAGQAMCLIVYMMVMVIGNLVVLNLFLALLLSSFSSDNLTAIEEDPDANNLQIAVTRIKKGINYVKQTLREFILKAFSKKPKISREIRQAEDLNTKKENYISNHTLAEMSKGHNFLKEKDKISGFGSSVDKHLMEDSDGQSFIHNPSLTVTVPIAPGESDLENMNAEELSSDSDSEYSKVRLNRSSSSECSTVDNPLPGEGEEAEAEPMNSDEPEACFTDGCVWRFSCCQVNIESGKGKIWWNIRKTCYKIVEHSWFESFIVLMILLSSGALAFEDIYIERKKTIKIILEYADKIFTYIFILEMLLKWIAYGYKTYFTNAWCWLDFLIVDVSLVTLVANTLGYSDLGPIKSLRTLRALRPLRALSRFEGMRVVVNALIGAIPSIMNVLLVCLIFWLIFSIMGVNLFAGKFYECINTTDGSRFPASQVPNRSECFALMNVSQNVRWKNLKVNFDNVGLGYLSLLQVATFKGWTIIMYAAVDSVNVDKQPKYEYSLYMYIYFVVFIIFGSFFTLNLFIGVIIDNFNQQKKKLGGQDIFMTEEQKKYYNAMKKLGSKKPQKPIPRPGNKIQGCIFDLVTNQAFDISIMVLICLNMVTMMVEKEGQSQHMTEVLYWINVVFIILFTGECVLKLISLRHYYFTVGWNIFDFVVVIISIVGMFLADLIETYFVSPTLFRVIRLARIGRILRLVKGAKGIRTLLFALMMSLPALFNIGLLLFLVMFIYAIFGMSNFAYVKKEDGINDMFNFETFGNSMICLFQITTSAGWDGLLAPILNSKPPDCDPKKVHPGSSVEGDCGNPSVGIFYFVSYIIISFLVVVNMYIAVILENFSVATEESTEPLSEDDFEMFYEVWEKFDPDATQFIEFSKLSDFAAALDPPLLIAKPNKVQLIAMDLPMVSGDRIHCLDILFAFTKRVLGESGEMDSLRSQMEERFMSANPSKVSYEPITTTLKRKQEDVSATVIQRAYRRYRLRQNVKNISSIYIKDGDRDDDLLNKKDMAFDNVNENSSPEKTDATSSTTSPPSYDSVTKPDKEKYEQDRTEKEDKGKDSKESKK

Row | Structure (SMILES) | IC50 [1] | IC50 (no platform marker printed in the cell)
1 | CCOC(=O)c1nc(-c2nc(N)nc(N(C)c3ccccc3)n2)no1 [Example 73, 3-[4-Amino-6-(methyl-phenyl-amino)-[1,3,5]triazin-2-yl]-[1,2,4]oxadiazole-5-carboxylic acid ethyl ester] | 1490 nM | –
2 | COc1ccsc1-c1nc(-c2nc(N)nc(N(C)c3ccccc3)n2)no1 [Example 74, 6-[5-(3-Methoxy-thiophen-2-yl)-[1,2,4]oxadiazol-3-yl]-N-methyl-N-phenyl-[1,3,5]triazine-2,4-diamine] | 1410 nM | –
3 | CNC(=O)c1ccc(-c2nc(-c3nc(N)nc(N(C)c4ccccc4)n3)no2)s1 [Example 75, 5-{3-[4-Amino-6-(methyl-phenyl-amino)-[1,3,5]triazin-2-yl]-[1,2,4]oxadiazol-5-yl}-thiophene-2-carboxylic acid methylamide] | 1190 nM | –
4 | COc1ncccc1-c1nc(-c2nc(N)nc(N(C)c3ccccc3)n2)no1 [Example 76, 6-[5-(2-Methoxy-pyridin-3-yl)-[1,2,4]oxadiazol-3-yl]-N-methyl-N-phenyl-[1,3,5]triazine-2,4-diamine] | 925 nM | –
5 | COc1ccc(-c2nc(-c3nc(N)nc(N(C)c4ccccc4)n3)no2)c(OC)c1 [Example 77, 6-[5-(2,4-Dimethoxy-phenyl)-[1,2,4]oxadiazol-3-yl]-N-methyl-N-phenyl-[1,3,5]triazine-2,4-diamine] | 246 nM | –
6 | CN(c1ccccc1)c1nc(N)nc(-c2noc(-c3ccc(C#N)nc3)n2)n1 [Example 78, 5-{3-[4-Amino-6-(methyl-phenyl-amino)-[1,3,5]triazin-2-yl]-[1,2,4]oxadiazol-5-yl}-pyridine-2-carbonitrile] | 1660 nM | –
7 | CN(c1ccccc1)c1nc(N)nc(-c2noc(-c3ccc(C(=O)N4CCOCC4)s3)n2)n1 [Example 79, (5-{3-[4-Amino-6-(methyl-phenyl-amino)-[1,3,5]triazin-2-yl]-[1,2,4]oxadiazol-5-yl}-thiophen-2-yl)-morpholin-4-yl-methanone] | 977 nM | –
8 | CN(c1ccccc1)c1nc(N)nc(-c2noc(-c3ccccc3C#N)n2)n1 [Example 80, 2-{3-[4-Amino-6-(methyl-phenyl-amino)-[1,3,5]triazin-2-yl]-[1,2,4]oxadiazol-5-yl}-benzonitrile] | 260 nM | –
9 | COc1cccc(-c2nc(-c3nc(N)nc(N(C)c4cccc(Cl)c4)n3)no2)c1 [Example 83, N-(3-Chloro-phenyl)-6-[5-(3-methoxy-phenyl)-[1,2,4]oxadiazol-3-yl]-N-methyl-[1,3,5]triazine-2,4-diamine] | 691 nM | –
10 | CN(c1cccc(Cl)c1)c1nc(N)nc(-c2noc(-c3ccccc3Cl)n2)n1 [Example 84, N-(3-Chloro-phenyl)-6-[5-(2-chloro-phenyl)-[1,2,4]oxadiazol-3-yl]-N-methyl-[1,3,5]triazine-2,4-diamine] | 170 nM | –
11 | COc1cccc(-c2nc(-c3nc(N)nc(N(C)c4cccc(F)c4)n3)no2)c1 [Example 85, N-(3-Fluoro-phenyl)-6-[5-(3-methoxy-phenyl)-[1,2,4]oxadiazol-3-yl]-N-methyl-[1,3,5]triazine-2,4-diamine] | 1270 nM | –
12 | Cc1ccc(-c2nc(-c3nc(N)nc(N(C)c4cccc(F)c4)n3)no2)o1 [Example 87, N-(3-Fluoro-phenyl)-N-methyl-6-[5-(5-methyl-furan-2-yl)-[1,2,4]oxadiazol-3-yl]-[1,3,5]triazine-2,4-diamine] | 3490 nM | –
13 | COc1cccc(-c2nc(-c3nc(N)nc(N(C)c4ccccc4F)n3)no2)c1 [Example 88, N-(2-Fluoro-phenyl)-6-[5-(3-methoxy-phenyl)-[1,2,4]oxadiazol-3-yl]-N-methyl-[1,3,5]triazine-2,4-diamine] | 361 nM | –
14 | COc1ccccc1-c1nc(-c2nc(N)nc(N(C)c3ccccc3F)n2)no1 [Example 89, N-(2-Fluoro-phenyl)-6-[5-(2-methoxy-phenyl)-[1,2,4]oxadiazol-3-yl]-N-methyl-[1,3,5]triazine-2,4-diamine] | 200 nM | –
15 | CN(c1nc(N)nc(-c2noc(-c3cccs3)n2)n1)c1ccccc1F [Example 90, N-(2-Fluoro-phenyl)-N-methyl-6-(5-thiophen-2-yl-[1,2,4]oxadiazol-3-yl)-[1,3,5]triazine-2,4-diamine] | 415 nM | –
16 | Cc1ccc(-c2nc(-c3nc(N)nc(N(C)c4ccccc4F)n3)no2)o1 [Example 91, N-(2-Fluoro-phenyl)-N-methyl-6-[5-(5-methyl-furan-2-yl)-[1,2,4]oxadiazol-3-yl]-[1,3,5]triazine-2,4-diamine] | 547 nM | –

Row | Structure (SMILES) | IC50 [1] | IC50 (no platform marker printed in the cell)
17 | COc1ccccc1-c1nc(-c2nc(N)nc(N(C)c3cccc(C)c3)n2)no1 [Example 92, 6-[5-(2-Methoxy-phenyl)-[1,2,4]oxadiazol-3-yl]-N-methyl-N-m-tolyl-[1,3,5]triazine-2,4-diamine] | 511 nM | –
18 | Cc1cccc(N(C)c2nc(N)nc(-c3noc(-c4cccs4)n3)n2)c1 [Example 93, N-Methyl-6-(5-thiophen-2-yl-[1,2,4]oxadiazol-3-yl)-N-m-tolyl-[1,3,5]triazine-2,4-diamine] | 931 nM | –
19 | CCN(c1ccccc1)c1nc(N)nc(-c2noc(-c3cccc(OC)c3)n2)n1 [Example 94, N-Ethyl-6-[5-(3-methoxy-phenyl)-[1,2,4]oxadiazol-3-yl]-N-phenyl-[1,3,5]triazine-2,4-diamine] | 813 nM | –
20 | CCN(c1ccccc1)c1nc(N)nc(-c2noc(-c3cccs3)n2)n1 [Example 96, N-Ethyl-N-phenyl-6-(5-thiophen-2-yl-[1,2,4]oxadiazol-3-yl)-[1,3,5]triazine-2,4-diamine] | 518 nM | –
21 | CCN(c1ccccc1)c1nc(N)nc(-c2noc(-c3ccc(C)o3)n2)n1 [Example 97, N-Ethyl-6-[5-(5-methyl-furan-2-yl)-[1,2,4]oxadiazol-3-yl]-N-phenyl-[1,3,5]triazine-2,4-diamine] | 1300 nM | –
22 | COc1ccccc1-c1nc(-c2nc(N)nc(N(C)c3cccc(F)c3)n2)no1 [Example 98, N-(3-Fluoro-phenyl)-6-[5-(2-methoxy-phenyl)-[1,2,4]oxadiazol-3-yl]-N-methyl-[1,3,5]triazine-2,4-diamine] | 318 nM | –
23 | CN(c1cccc(F)c1)c1nc(N)nc(-c2noc(-c3cccs3)n2)n1 [Example 99, N-(3-Fluoro-phenyl)-N-methyl-6-(5-thiophen-2-yl-[1,2,4]oxadiazol-3-yl)-[1,3,5]triazine-2,4-diamine] | 1130 nM | –
24 | CN(c1cccc(Cl)c1)c1nc(N)nc(-c2noc(-c3cccs3)n2)n1 [Example 101, N-(3-Chlorophenyl)-N-methyl-6-(5-thiophen-2-yl-[1,2,4]oxadiazol-3-yl)-[1,3,5]triazine-2,4-diamine] | 206 nM | –
25 | Cc1ccc(-c2nc(-c3nc(N)nc(N(C)c4cccc(Cl)c4)n3)no2)o1 [Example 102, N-(3-Chloro-phenyl)-N-methyl-6-[5-(5-methyl-furan-2-yl)-[1,2,4]oxadiazol-3-yl]-[1,3,5]triazine-2,4-diamine] | 489 nM | –
26 | Cc1cccc(N(C)c2nc(N)nc(-c3noc(-c4ccco4)n3)n2)c1F [Example 107, N-(2-Fluoro-3-methyl-phenyl)-6-(5-furan-2-yl-[1,2,4]oxadiazol-3-yl)-N-methyl-[1,3,5]triazine-2,4-diamine] | 749 nM | –
27 | Nc1nc(Nc2cc(F)ccc2F)nc(-c2noc(-c3ccco3)n2)n1 [Example 109, N-(2,5-Difluoro-phenyl)-6-(5-furan-2-yl-[1,2,4]oxadiazol-3-yl)-[1,3,5]triazine-2,4-diamine] | 369 nM | –
28 | CN(c1ccccc1)c1nc(N)nc(-c2noc(-c3ccncc3)n2)n1 [Example 114, N-Methyl-N-phenyl-6-(5-pyridin-4-yl-[1,2,4]oxadiazol-3-yl)-[1,3,5]triazine-2,4-diamine] | 606 nM | –
29 | CN(c1ccccc1)c1nc(N)nc(-c2noc(-c3cccnc3)n2)n1 [Example 115, N-Methyl-N-phenyl-6-(5-pyridin-3-yl-[1,2,4]oxadiazol-3-yl)-[1,3,5]triazine-2,4-diamine] | 1320 nM | –
30 | Nc1nc(-c2noc(-c3ccco3)n2)nc(N2CCCc3ccccc32)n1 [Example 116, 4-(3,4-Dihydroquinolin-1-yl)-6-(5-furan-2-yl-[1,2,4]oxadiazol-3-yl)-[1,3,5]triazine-2-amine] | – | 1620 nM
31 | CN(c1ccccc1)c1nc(N)nc(-c2noc(-c3ccncn3)n2)n1 [Example 120, N-Methyl-N-phenyl-6-(5-pyrimidin-4-yl-[1,2,4]oxadiazol-3-yl)-[1,3,5]triazine-2,4-diamine] | 2240 nM | –
32 | Nc1nc(-c2noc(-c3ccco3)n2)nc(N(CC2CC2)c2ccccc2)n1 [Example 121, N-Cyclopropylmethyl-6-(5-furan-2-yl-[1,2,4]oxadiazol-3-yl)-N-phenyl-[1,3,5]triazine-2,4-diamine] | 395 nM | –
